{"source": "patent US20210145816A1", "about": "“PHARMACEUTICAL FORMULATION OF LONAFARNIB WITH A SULFOBUTYLETHER BETA-CYCLODEXTRIN” (Cyclolab Cyclodextrin Research and Development Laboratory …, priority 2019, published 2021)", "key": {"[1]": {"details": "water; cited from earlier work"}, "[2]": {"test": "formulation of lonafarnib into a liquid vehicle with 2-hydroxypropyl beta cyclodextrin", "assay_type": "physicochemical", "details": "20% 2-hydroxypropyl beta cyclodextrin, lonafarnib 12 mg/ml", "description": "A prior publication describing formulation of lonafarnib into a liquid vehicle with a cyclodextrin is known (Hernandez et al., Science Translational Medicine, 11, eaat3005 (2019)), but based on the disclosed data, even using high concentration (20%) of 2-hydroxypropyl beta cyclodextrin (hydroxypropyl betadex), a suspension of lonafarnib was obtained for the (pre)clinically relevant concentration of the drug (12 mg/ml). […] Consequently, present invention provides a significant formulation improvement over the teachings of said journal publication."}, "[3]": {"details": "20% 2-hydroxypropyl beta cyclodextrin, lonafarnib 12 mg/ml; cited from earlier work"}}, "data": [{"smiles": "NC(=O)N1CCC(CC(=O)N2CCC([C@H]3c4ncc(Br)cc4CCc4cc(Cl)cc(Br)c43)CC2)CC1", "note": "[Lonafarnib]", "values": [{"measurement": "aqueous solubility", "setting": "[1]", "value": 0.8, "unit": "µg/mL"}, {"measurement": "physical state of liquid formulation obtained (experiment reproduced by Cyclolab Ltd.)", "setting": "[2]", "value": "rough suspension, unsuitable for parenteral application"}, {"measurement": "physical state of liquid formulation obtained (Hernandez et al. 2019)", "setting": "[3]", "value": "suspension"}]}]}
